Source: ChEMBL document CHEMBL5634135, “Design, synthesis, and biological evaluation of quinoline-piperazine/pyrrolidine derivatives as possible antileishmanial agents” (Eur J Med Chem, 2023)
Activity calls are given as the source filed them. No cut-off for these calls is given here.

How the values were obtained:
Leishmania donovani [1] = test: Antileishmanial activity against amastigote form of luciferase expressing Leishmania donovani MHOM/IN/80/Dd8 infected in mouse J774.A1 cells assessed as inhibition of parasite growth at 50 uM measured after 72 hrs by luciferase reporter gene assay; assay type: functional, organism-based
Leishmania donovani [2] = test: Antileishmanial activity against Leishmania donovani assessed as inhibition of parasite growth; assay type: functional, organism-based
Leishmania infantum [3] = test: Antileishmanial activity against promastigote form of Leishmania infantum BCN150 overexpressing iRFP assessed as inhibition of parasite growth measured after 52 hrs; assay type: functional, organism-based; conditions: BCN150, 52 h
Leishmania infantum [4] = test: Antileishmanial activity against amastigote form of Leishmania infantum BCN150 overexpressing iRFP assessed as inhibition of parasite growth measured after 52 hrs; assay type: functional, organism-based; conditions: BCN150, 52 h
Leishmania donovani [5] = test: Antileishmanial activity against amastigote form of luciferase expressing Leishmania donovani MHOM/IN/80/Dd8 infected in mouse J774.A1 cells assessed as inhibition of parasite growth measured after 72 hrs by luciferase reporter gene assay; assay type: functional, organism-based; conditions: MHOM/IN/80/Dd8, J774.A1, 72 h
[6] = Cytotoxicity against mouse J774.A1 cells assessed as reduction in cell viability incubated for 48 hrs by MTT assay; assay type: toxicity, cell-based
[7] = Safety index, ratio of CC50 for cytotoxicity against mouse J774.A1 cells to IC50 for antileishmanial activity against amastigote form of luciferase expressing Leishmania donovani MHOM/IN/80/Dd8 infected in mouse J774.A1; assay type: toxicity, cell-based; conditions: read-out: Ratio CC50/IC50
Leishmania donovani [8] = test: Antileishmanial activity against amastigote form of Leishmania donovani infected in golden hamster assessed as reduction in parasite load in spleen at 50 mg/kg, ip administered for 5 days and measured on day 7 post-drug treatment by Giemsa staining based analysis; assay type: functional; conditions: 288 h, time 12 day
Leishmania donovani [9] = test: Antileishmanial activity against amastigote form of Leishmania donovani infected in golden hamster assessed as reduction in parasite load in spleen at 50 mg/kg, ip administered for 5 days and measured on day 28 post-dug treatment by Giemsa staining based analysis; assay type: functional; conditions: 792 h, time 33 day
[10] = Toxicity against golden hamster infected with amastigote form of Leishmania donovani assessed as skin rashes at 50 mg/kg, ip administered for 5 days; assay type: organism-based, Mesocricetus auratus; conditions: in vivo, 120 h, time 5 day
[11] = Toxicity against golden hamster infected with amastigote form of Leishmania donovani assessed as discomfort at 50 mg/kg, ip administered for 5 days; assay type: organism-based, Mesocricetus auratus; conditions: in vivo, 120 h, time 5 day
[12] = Toxicity against golden hamster infected with amastigote form of Leishmania donovani assessed as animal's death at 50 mg/kg, ip administered for 5 days; assay type: organism-based, Mesocricetus auratus; conditions: in vivo, 120 h, time 5 day
[13] = Cmax in golden hamster at 50 mg/kg, ip measured for 24 hrs by LC-MS/MS analysis; assay type: ADME, organism-based, Mesocricetus auratus; conditions: in vivo
[14] = Tmax in golden hamster at 50 mg/kg, ip measured for 24 hrs by LC-MS/MS analysis; assay type: ADME, organism-based, Mesocricetus auratus; conditions: in vivo
[15] = AUC in golden hamster at 50 mg/kg, ip measured for 24 hrs by LC-MS/MS analysis; assay type: ADME, organism-based, Mesocricetus auratus; conditions: in vivo
[16] = Half life in golden hamster at 50 mg/kg, ip measured for 24 hrs by LC-MS/MS analysis; assay type: ADME, organism-based, Mesocricetus auratus; conditions: in vivo
[17] = Clearance in golden hamster at 50 mg/kg, ip measured for 24 hrs by LC-MS/MS analysis; assay type: ADME, organism-based, Mesocricetus auratus; conditions: in vivo
[18] = Volume of distribution in golden hamster at 50 mg/kg, ip measured for 24 hrs by LC-MS/MS analysis; assay type: ADME, organism-based, Mesocricetus auratus; conditions: in vivo
[19] = MRT in golden hamster at 50 mg/kg, ip measured for 24 hrs by LC-MS/MS analysis; assay type: ADME, organism-based, Mesocricetus auratus; conditions: in vivo

| SMILES | inhibition (Leishmania donovani [1]) | IC50 (Leishmania donovani [5]) [µM] | CC50 at 48 h [6] [µM] | selectivity ratio [7] | also measured |
| --- | --- | --- | --- | --- | --- |
| OC(COc1ccc(-c2cc(-c3ccccc3Cl)c3cc(Cl)ccc3n2)cc1)CN1CCN(c2ccccc2)CC1 (stereo not drawn) | inactive | – | – | – | – |
| OC(COc1ccc(-c2cc(-c3ccccc3)c3ccccc3n2)cc1)CN1CCN(c2ccccc2F)CC1 (stereo not drawn) | inactive | – | – | – | – |
| O=C(c1ccco1)N1CCN(CC(O)COc2ccc(-c3cc(-c4ccccc4Cl)c4cc(Cl)ccc4n3)cc2)CC1 (stereo not drawn) | inactive | – | – | – | – |
| OC(COc1ccc(-c2cc(-c3ccccc3)c3ccccc3n2)cc1)CN1CCN(c2cccc(Cl)c2Cl)CC1 (stereo not drawn) | inactive | – | – | – | – |
| OC(COc1ccc(-c2cc(-c3ccccc3Cl)c3cc(Cl)ccc3n2)cc1)CN1CCN(c2ccccc2F)CC1 (stereo not drawn) | inactive | – | – | – | – |
| O=[N+]([O-])c1ccc2nc(-c3ccc(OCC(O)CN4CCN(c5cccc(Cl)c5Cl)CC4)cc3)cc(-c3ccccc3)c2c1 (stereo not drawn) | inactive | – | – | – | – |
| Cc1ccc(Cl)cc1N1CCN(CC(O)COc2ccc(-c3cc(-c4ccccc4)c4ccccc4n3)cc2)CC1 (stereo not drawn) | inactive | – | – | – | – |
| OC(COc1ccc(-c2cc(-c3ccccc3)c3cc(Cl)ccc3n2)cc1)CN1CCN(c2ccccc2)CC1 (stereo not drawn) | inactive | – | – | – | – |
| NC(CC(=O)N1CC(CO)C(c2ccc(Cl)cc2)C1)Cc1ccc(Cl)cc1 (stereo not drawn) | – | – | – | – | IC50 (Leishmania donovani [2]): 0.093 µM |
| OC(COc1ccc(-c2cc(-c3ccccc3Cl)c3cc(Cl)ccc3n2)cc1)CN1CCN(c2ccccc2Cl)CC1 (stereo not drawn) | inactive | – | – | – | – |
| NC(=O)C1CCN(CC(O)COc2ccc(-c3cc(-c4ccccc4)c4ccccc4n3)cc2)CC1 (stereo not drawn) | inactive | – | – | – | – |
| COc1ccccc1N1CCN(C(=O)CN(Cc2ccccc2)c2ccc(Cl)cc2)CC1 | – | – | – | – | IC50 (Leishmania infantum [3]): 3.61 µM; IC50 (Leishmania infantum [4]): 44.1 µM |
| OC(COc1ccc(-c2cc(-c3ccccc3)c3ccccc3n2)cc1)CN1CCN(c2ccccc2)CC1 (stereo not drawn) | – | 5.39 | 21.5 | 3.98 | – |
| Cc1ccc2c(-c3ccccc3)cc(-c3ccc(OCC(O)CN4CCCC4)cc3)nc2c1 (stereo not drawn) | inactive | – | – | – | – |
| OC(COc1ccc(-c2cc(-c3ccccc3)c3ccccc3n2)cc1)CN1CCCC1 (stereo not drawn) | – | 4.38 | 20.8 | 4.73 | – |
| OC(COc1ccc(-c2ccc3ccccc3n2)cc1)CN1CCN(c2cccc(Cl)c2Cl)CC1 (stereo not drawn) | inactive | – | – | – | – |
| O=C(c1ccco1)N1CCN(CC(O)COc2ccc(-c3cc(-c4ccccc4)c4cc(Cl)ccc4n3)cc2)CC1 (stereo not drawn) | – | 8.13 | 57.8 | 7.1 | – |
| Cc1ncc([N+](=O)[O-])n1CC(O)COc1ccc(-c2cc(-c3ccccc3)c3ccccc3n2)cc1 (stereo not drawn) | inactive | – | – | – | – |
| CCOC(=O)N1CCN(CC(O)COc2ccc(-c3cc(-c4ccccc4)c4cc(Cl)ccc4n3)cc2)CC1 (stereo not drawn) | inactive | – | – | – | – |

| SMILES | inhibition (Leishmania donovani [1]) | IC50 (Leishmania donovani [5]) [µM] | CC50 at 48 h [6] [µM] | selectivity ratio [7] | also measured |
| --- | --- | --- | --- | --- | --- |
| OC(COc1ccc(-c2cc(-c3ccccc3)c3ccccc3n2)cc1)Cn1ccnc1 (stereo not drawn) | – | 3.37 | 34 | 10.1 | – |
| O=[N+]([O-])c1ccc2nc(-c3ccc(OCC(O)CN4CCCC4)cc3)cc(-c3ccccc3)c2c1 (stereo not drawn) | inactive | – | – | – | – |
| Cc1ccc(Cl)cc1N1CCN(CC(O)COc2ccc(-c3cc(-c4ccccc4Cl)c4cc(Cl)ccc4n3)cc2)CC1 (stereo not drawn) | inactive | – | – | – | – |
| OC(COc1ccc(-c2cc(-c3ccccc3)c3ccccc3n2)cc1)CN1CCN(c2ccccn2)CC1 (stereo not drawn) | – | 7.01 | 27.2 | 3.88 | – |
| OC(COc1ccc(-c2cc(-c3ccccc3Cl)c3cc(Cl)ccc3n2)cc1)CN1CCN(c2ccccn2)CC1 (stereo not drawn) | – | 5.56 | 41.9 | 7.52 | – |
| OC(COc1ccc(-c2cc(-c3ccccc3)c3cc(Cl)ccc3n2)cc1)CN1CCN(c2cccc(Cl)c2Cl)CC1 (stereo not drawn) | inactive | – | – | – | – |
| OC(COc1ccc(-c2ccc3ccccc3n2)cc1)CN1CCCC1 (stereo not drawn) | – | 8.89 | 54.7 | 6.15 | – |
| OC(COc1ccc(-c2cc(-c3ccccc3)c3ccc(Br)cc3n2)cc1)CN1CCCC1 (stereo not drawn) | – | 5.32 | 49.7 | 9.34 | – |
| CCCCCCCCCCCCCCCCOP(=O)([O-])OCC[N+](C)(C)C [MILTEFOSINE] | – | 9.25 | – | 5.76 | – |
| OC(COc1ccc(-c2cc(-c3ccccc3Cl)c3cc(Cl)ccc3n2)cc1)CN1CCN(c2cccc(Cl)c2Cl)CC1 (stereo not drawn) | – | 5.39 | 63.5 | 11.8 | inhibition in vivo at 50 mg/kg (Leishmania donovani [8]): 40.7%; inhibition in vivo at 50 mg/kg (Leishmania donovani [9]): 56.3%; Activity [10]: Non-Toxic; Activity [11]: Non-Toxic; Activity [12]: Non-Toxic; Cmax [13]: 9930 ng/mL; Tmax [14]: 2 h; AUC at 24 h [15]: 32900 ng·h/mL; half-life [16]: 5 h; CL/F [17]: 25.8 mL/min/kg; Vd [18]: 11.25 L/kg; MRT [19]: 5.56 h |
| Cc1ccc2c(-c3ccccc3)cc(-c3ccc(OCC(O)CN4CCN(c5cccc(Cl)c5Cl)CC4)cc3)nc2c1 (stereo not drawn) | inactive | – | – | – | – |
| Cc1cc(-c2ccc(OCC(O)CN3CCN(c4cccc(Cl)c4Cl)CC3)cc2)nc2ccccc12 (stereo not drawn) | inactive | – | – | – | – |
| OC(COc1ccc(-c2cc(-c3ccccc3F)c3cc(Cl)ccc3n2)cc1)CN1CCCC1 (stereo not drawn) | – | 2.4 | 22.7 | 9.41 | – |
| O=C(c1ccco1)N1CCN(CC(O)COc2ccc(-c3cc(-c4ccccc4)c4ccccc4n3)cc2)CC1 (stereo not drawn) | – | 8.22 | 21.8 | 2.64 | – |
| OC(COc1ccc(-c2cc(-c3ccccc3)c3ccccc3n2)cc1)Cn1cncn1 (stereo not drawn) | inactive | – | – | – | – |
| OC(COc1ccc(-c2cc(-c3ccccc3F)c3cc(Cl)ccc3n2)cc1)CN1CCN(c2cccc(Cl)c2Cl)CC1 (stereo not drawn) | inactive | – | – | – | – |
| OC(COc1ccc(-c2cc(-c3ccccc3)c3cc(Cl)ccc3n2)cc1)CN1CCCC1 (stereo not drawn) | – | 2.09 | 21.4 | 10.3 | inhibition in vivo at 50 mg/kg (Leishmania donovani [8]): 27.8%; inhibition in vivo at 50 mg/kg (Leishmania donovani [9]): 49.3%; Activity [10]: Non-Toxic; Activity [11]: Non-Toxic; Activity [12]: Non-Toxic; Cmax [13]: 17600 ng/mL; Tmax [14]: 2 h; AUC at 24 h [15]: 85000 ng·h/mL; half-life [16]: 4.67 h; CL/F [17]: 9.5 mL/min/kg; Vd [18]: 3.88 L/kg; MRT [19]: 6.35 h |
| OC(COc1ccc(-c2cc(-c3ccccc3)c3ccc(Br)cc3n2)cc1)CN1CCN(c2cccc(Cl)c2Cl)CC1 (stereo not drawn) | inactive | – | – | – | – |
| COc1ccc(N2CCN(CC(O)COc3ccc(-c4cc(-c5ccccc5Cl)c5cc(Cl)ccc5n4)cc3)CC2)cc1 (stereo not drawn) | inactive | – | – | – | – |
